Marks after values point to notes of the source that are not given here.
Key:
[1] = tested on: tobacco mosaic virus (TMV); assay: Induction of resistance to tobacco mosaic virus in tobacco; format: in vivo; settings: for Effectiveness Covered (%) (decline in TMV lesions vs UTC, systemic response) / Effectiveness Uncovered (%) (decline in TMV lesions vs UTC, local response): TMV 3 days post-treatment, scored 3 days after inoculation
corn plants = assay: Growth tests after foliar spray, corn; format: in vivo
Description: (§1) Soy seeds (or corn seeds, as indicated) were planted in flats with 2 seeds per cell within the flat at a greenhouse facility. The seeds were allowed to germinate and the smaller plant is culled, leaving one plant per cell. Once the first true leaves are fully expanded and the second leaves are beginning to expand, the plants were initially measured for height. This was performed by stretching the highest leaf upward and measuring the distance to the soil. Peptides were dissolved in water at the indicated concentrations (Table 21 below). The plants were then treated with a foliar spray using widely available spray bottles until liquid was dripping from the leaves. Six flats of 14 plants each were treated per condition (peptide or control). Designated untreated control plants were sprayed with water. The plants were allowed to grow for 14 days. The height of the plants was again measured and compared to the original height to quantify growth. Finally, the plants were harvested by removing the shoots (all above-ground material). For some experiments, this was weighed upon harvesting to determine the fresh mass (including water weight). The shoots were then dried at 70° C. for 72 hours, and again weighed to determine dry biomass. Although this method uses a similar measure (growth) as in Example 3 above, the treatment method is different (seed soak vs. foliar spray). As a result, the experimental outcomes may diverge.

[2] = tested on: soy plants (leaf tissue discs); assay: Peroxide response, ferric-xylenol orange assay on soy leaf discs; format: cell-based; settings: 0.5 ug/ml peptide, one hour, absorbance at 595 nm vs blank
Description: The ferric-xylenol orange complex assay for hydrogen peroxide (Gay et al., Analytical Biochemistry 273:149-55 (1999), which is hereby incorporated by reference in its entirety) was used to determine peroxide production by plant leaf tissue. Briefly, reagent A was prepared by mixing 10 mg of ferrous ammonium sulfate with 133 uL of sulfuric acid in a total volume of 1 mL with water. Reagent B was prepared by mixing 2 g of sorbitol with 9.34 mg of xylenol orange in 80 ml of water. 1M hydrochloric acid was slowly added until the solution turned yellow. The solution was then diluted with water to a total volume of 100 mL, and stored in a dark bottle at 4° C.
Leaves from either tobacco plants (plants grown to 6 true leaves) or soy plants (plants grown to 6 true leaves) were used for the assay. The leaf was first removed from the plant and placed on a paper towel. 0.5 cm leaf tissue circles were then removed from the leaf using a leather punch tool. These discs were then placed into the wells of a 96-well plate. […] of water was added to each disc. The plate was covered with parafilm and rested for 12 hours in the dark. The excess water was then removed and the wells washed with an additional 250 uL of water. The washes were then removed from the wells and replaced with 105 uL of a 0.5 ug/ml solution of peptide in water or water blank, generally in quadruplicate. Where peptide solubility was a problem, pH buffer was added to both the blank and peptide samples. Leaf discs were incubated with the peptides for one hour under fluorescent lighting. 50 ul of the solution from each leaf sample was removed to a new well for chemical analysis.
Just prior to analysis, reagents A and B were freshly mixed in a 1:100 ratio to produce the assay reagent. 200 ul of this mixture was added to each well containing 50 ul of leaf-treated solution. The plate was incubated in the dark for 20 minutes and the absorbance at 595 nm was detected. Results were analyzed using a two-tailed Student's T-test. The results were divided into several response classes. XR++ indicated a positive response with absorbance >0.05 units above the negative control and a Student's T-test p<0.05. XR+ indicated an absorbance <0.05 units above the blank and a Student's T-test p<0.05. XR weak indicated a response >0.02 units above the negative control with a p-value that was not significant. XR− indicated an absorbance within 0.02 units of the negative control. It should be noted that there can be significant biological variability in the peroxide response due to plant age, location of the disc within the leaf, and other factors. As a result, p-values from the T-test are a guide and not an absolute inclusion criterion.

Soy plants = assay: Growth tests after foliar spray, soy; format: in vivo
Description: as §1

soybean seeds = assay: Root & shoot growth analysis after seed soak, soy; format: in vivo; settings: for Root (root growth index, percentage increase over untreated control) / Shoot (shoot length, percentage increase over untreated control): soy, 12-14 days
Description: (§2) Peptides were tested for biological effects on the allocation of growth resources to the shoot (above ground) and root (below ground). Peptides were dissolved at 0.2, 2, or 5 μg/ml in a total volume of 100 ml deionized water. Corn or soybean seeds were then soaked for one hour in the peptide solution. Untreated control (UTC) plants were soaked in deionized water. Clear plastic 300 ml beverage cups (Solo®, Dart Container Corporation) were prepared for planting by marking the bottom with a cross, dividing the bottom into four equal quadrants. The cups were then filled with Sunshine Mix #1 soil (SunGro Horticulture) sieved to ¼″. 100 ml of water was added to the soil. Treated seeds were then planted by pressing the seed lightly into the top of the soil. The seeds were then covered with an additional 50 ml of loose soil. Seeds were allowed to germinate and grow for 12-14 days.
The length of the shoot was measured as the distance from the soil to the lightly stretched tip of the highest leaf for each plant. […] Stunting was defined as lacking a fully expanded true leaf at time of data collection or having an expanded true leaf judged by eye to be <½ the average leaf area of the treatment group. Generally, 30 seeds were planted per treatment group and 15-25 plants were used for data collection.
(§3) Root growth was estimated by counting the number of times that a primary root crosses the quadrant marks on the bottom of the cup. These were often observed along the bottom circumference of the cup, although some were visible along the side of the container and were counted as if crossing a vertical extension of the quadrant line. This number was divided by 4 to produce a root growth index.
Each number indicates the percentage increase over the untreated control values.

Corn seeds = assay: Root & shoot growth analysis after seed soak, corn; format: in vivo; settings: seed soak 0.2 μg/ml, 12-14 days
Description: as §2
The length of the shoot was measured as the distance from the soil to the lightly stretched tip of the highest leaf for each plant. […]
as §3, with “This number was divided by 4 to produce a root growth index.” left out

[3] = foliar spray 2.0 ug/ml, 14 days
[4] = soy, foliar spray 2.0 ug/ml, 14 days

With NQGISEKQLDQLLTQLI (P1-29) the “Effectiveness Covered (%) (decline in TMV lesions vs UTC, systemic response)” value (“Effectiveness Covered (%)” for short) ([1]; spray 10 ug/ml) was 18%, the “Effectiveness Uncovered (%) (decline in TMV lesions vs UTC, local response)” value (“Effectiveness Uncovered (%)” below) ([1]; spray 10 ug/ml) was 44% and the “growth benefit in corn” value (corn plants; foliar spray) was “modest growth benefit”. For the same sequence, the “Dry biomass increase (%)” value (corn plants; [3]) was 5.7%, the “Fresh mass increase (%)” value (corn plants; [3]) was 5.1% and the “Growth increase (%)” value (corn plants; [3]) was 7.8%.

In the case of “QAGPQSANKTGNVDDANNQDPAQALEQLLEDLV (P14-22A,26E)”, the “Peroxide Response, Soy” value [2] is reported as “Weak+”, the “Effectiveness Covered (%)” value ([1]; spray 20 ug/ml) is reported as 85* % and the “Effectiveness Uncovered (%)” value ([1]; spray 20 ug/ml) is reported as 91* %.

In the case of “QAGPQSANKTGNVDDANNQDPLQALLQAAEDLV (P14-22L,28-29A)”, the “Peroxide Response, Soy” value [2] is reported as “Weak+”, the “Effectiveness Covered (%)” value ([1]; spray 10 ug/ml) is reported as 84* % and the “Effectiveness Uncovered (%)” value ([1]; spray 10 ug/ml) is reported as 83* %.

For “QAGPQSANKTGNVDDANNQDPLQALLQLLEDLV (P14-22L,26L)”, the “Peroxide Response, Soy” value [2] was “Weak+”, the “Effectiveness Covered (%)” value ([1]; spray 20 ug/ml) was 67* % and the “Effectiveness Uncovered (%)” value ([1]; spray 20 ug/ml) was 65* %.

With SQGISEKQADQLLSQLIQALLQP (P4-14S-9A) the “growth, dry biomass and fresh mass (text summary of Table 21)” value (Soy plants; foliar spray) was “increases in growth and dry biomass”, the “Dry biomass increase (%)” value (Soy plants; [4]) was 10.8% and the “Growth increase (%)” value (Soy plants; [4]) was 11.9%. The “TMV response / effectiveness against TMV infection (summary of Table 22)” value ([1]; foliar spray) was “produced the best results”, the “Effectiveness Covered (%)” value ([1]; spray 5.0 ug/ml) was 86* % and the “Effectiveness Uncovered (%)” value ([1]; spray 5.0 ug/ml) was 84* %. For the same sequence, the “shoot growth (Table 20)” value (soybean seeds; seed soak, p14a soy at 0.2 μg/ml) was “increased shoot growth”, the “Root (root growth index, percentage increase over untreated control)” value (soybean seeds; seed soak 2.0 μg/ml) was 4.3% and the “Shoot (shoot length, percentage increase over untreated control)” value (soybean seeds; seed soak 2.0 μg/ml) was 5.0%. For the same sequence, the “Root (root growth index, percentage increase over untreated control)” value (soybean seeds; seed soak 5.0 μg/ml) was 2.5%, the “Shoot (shoot length, percentage increase over untreated control)” value (soybean seeds; seed soak 5.0 μg/ml) was 6.5%* and the “Root (root growth index, percentage increase over untreated control)” value (Corn seeds) was 4.8%. The “Shoot (shoot length, percentage increase over untreated control)” value (Corn seeds) was 3.9%*.

With SQGISEKQDDQLLSQLIQALLQP (P4-14S-9D) the “Peroxide Response, Soy” value [2] was “Weak+”, the “Effectiveness Covered (%)” value ([1]; spray 10 ug/ml) was 52% and the “Effectiveness Uncovered (%)” value ([1]; spray 10 ug/ml) was 89%.

— patent US10524472B2, “Elicitor peptides having disrupted hypersensitive response box and use thereof” (Plant Health Care, Inc., priority 2014, dated 2020)
